Results published in patent publication US9549912B2, “Methods for treating atrial fibrillation” (Armetheon, Inc., priority 2009, dated 2017).
Where “and” joins values, the source holds several entries; their conditions need not be identical. Identical values can stand only once. Entries after “also recorded” stand apart in the source; their conditions may differ.

Key:
[1] = test system: subjects with paroxysmal atrial fibrillation who had implanted pacemakers; assay: Proof of concept study of ATI-2042 in PAF patients with pacemakers: AF burden and AF episodes (Example 1); assay type: in vivo, human
Excerpt: Epub 2009 Jan. 26). This study was a proof of concept design seeking preliminary information on the pharmacodynamic effects, safety, and tolerability of the investigational drug ATI-2042 at a variety of doses, in patients with PAF. Patients with advanced DDDRP pacemakers were selected because of the pacemaker's sophisticated diagnostics and the ability to record continuously and log asymptomatic as well as symptomatic episodes. Only post-menopausal or surgically sterile females with a significant PAF burden and pacemakers were included in this study. The pacemakers had to have been in situ for at least 1 month prior to the study and have appropriate arrhythmia diagnostics. In this study, Vitatron pacemakers, models Selection 9000 or T70 pacemakers, were used. […] Although this finding was explored further, it was prudent to commence clinical testing in a population not at risk for this effect. […] The patients underwent screening assessments to assess suitability for the study and to obtain a baseline medical history and examination. The value of this cohort was that the pacemaker was not inserted for bradycardia but for the treatment of AF using various prevention pacing and rate control techniques. The inclusion criteria were as follows: age 18-85 years; […] The initial ATI-2042 dosage for all subjects was 200 mg orally bid, and it was then increased by 200 mg bid for each subsequent study period. Patients received 200 mg bid of ATI-2042 during period 2, 400 mg bid during period 3, 600 mg bid during period 4 and 800 mg bid during period 5, and no drug was administered during baseline and washout periods. “Selection 9000” and “T70” pacemakers (Vitatron, […], The Netherlands) are dual-chamber pacemakers with sophisticated and similar algorithms for AF detection and prevention. Atrial fibrillation detection is based on atrial rate; atrial tachyarrhythmias are detected when the median atrial cycle length is less than that programmed for AT or AF detection. In all patients, atrial fibrillation was detected if the atrial rate was >200 bpm for six consecutive beats, and its end logged if the atrial rate dropped below 200 bpm for 10 beats. […] Pacemaker anti-arrhythmic algorithms were turned off prior to entry into the baseline period and remained turned off until after washout. […] The primary outcome measure, AFB, was defined as the duration of time the subject's cardiac rhythm was AF divided by the total time recorded for that study period, expressed as percent. The total duration of time that the rhythm was AF is a function of the number of PAF episodes and the duration of each episode. Therefore, a reduction in AFB can occur through reduction in either or both of these variables. Atrial fibrillation burden was compared with baseline during the treatment periods. Secondary outcome measures were the number of AF episodes, the safety of ATI-2042, and the incidence and severity of adverse events (AEs). […] Atrial fibrillation burden is given as the percentage of total storage duration. The sample size for this study was selected empirically. All patients who received any amount of study medication were included in the efficacy and safety analysis. Efficacy variables for the study group are described as mean and standard deviation for each study period. Due to the small number of subjects, comparisons of periods 2-6 with baseline were made using estimates from a mixed-effects regression model.

[2] = target: cytochrome P450 2C9 (CYP2C9) (Homo sapiens, UniProt P11712); assay: CYP2C9 inhibition; assay type: in vitro ADME
[3] = Electrophysiological activity in animals: atrial refractoriness, metabolite activity; assay type: in vivo; details: animals
[4] = Safety, ECG and thyroid function (Example 1); assay type: in vivo, human
Method: Patients were then monitored for at least 3 h continuously post-dose; this included telemetry, vital signs, and oxygen saturations. Electrocardiograms were taken, and the pacemaker data were downloaded prior to drug administration on day 8 and day 14 of each study period.
Criteria for drug discontinuation included a fall in systolic blood pressure (BP) to <90 mmHg systolic, an increase in BP>200 mmHg, intolerable side-effects, a change in rhythm that in the opinion of the investigator constituted a risk to safety, or a QRS increase >50%. Where possible, ECGs of intrinsic rhythm rather than ventricular-paced rhythm were obtained, as paced complexes can be difficult to interpret for QT prolongation. An increase in QT interval >470 ms for intrinsic and >550 ms for paced beats or an increase of 30% was considered significant.
Electrocardiogram parameters (ventricular HR, PR, QRS, QT, QTc interval) were summarized by baseline, dosing period, and washout using descriptive statistics. Changes from baseline in ECG values at day 8 of dosing and day 14 of washout were also summarized. Baseline values of ECG parameters are defined as the mean of three values recorded prior to the first dose of ATI-2042.

Sequence of cytochrome P450 2C9 (CYP2C9) (P11712 whole entry): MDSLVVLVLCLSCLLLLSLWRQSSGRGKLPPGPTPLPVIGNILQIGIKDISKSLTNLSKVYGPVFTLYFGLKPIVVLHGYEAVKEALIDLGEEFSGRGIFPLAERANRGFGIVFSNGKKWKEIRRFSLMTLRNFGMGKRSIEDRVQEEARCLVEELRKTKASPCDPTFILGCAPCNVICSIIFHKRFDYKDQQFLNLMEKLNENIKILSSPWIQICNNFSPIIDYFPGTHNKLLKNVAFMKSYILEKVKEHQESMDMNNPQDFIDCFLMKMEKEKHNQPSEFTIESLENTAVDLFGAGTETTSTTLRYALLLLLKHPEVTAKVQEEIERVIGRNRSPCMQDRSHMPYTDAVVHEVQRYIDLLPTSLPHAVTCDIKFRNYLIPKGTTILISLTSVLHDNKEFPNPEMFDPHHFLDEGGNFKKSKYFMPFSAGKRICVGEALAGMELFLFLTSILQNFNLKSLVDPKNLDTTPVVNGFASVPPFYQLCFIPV

Substance: (S)-sec-butyl 2-(3-(4-(2-(diethylamino)ethoxy)-3,5-diiodobenzoyl)benzofuran-2-yl)acetate [ATI-2042]
- mean AFB (SD) ([1]; 200 mg bid (p2), baseline 20.3+14.6%): 5.2+4.2%
- mean AFB (SD) ([1]; 400 mg bid (p3)): 5.2+5.2%
- mean AFB (SD) ([1]; 600 mg bid (p4)): 2.8+3.4%
- mean AFB (SD) ([1]; 800 mg bid (p5)): 1.5 ± 0.5%
- effect on AFB in refractory PAF patients ([1]; all doses): significantly effective in reducing AFB at all doses
- decrease in AFB ([1]; all doses (200-800 mg bid)): at least 70%
- number of AF episodes ([1]; on drug, remained elevated in washout): increased initially
- relative reduction (RR) in AFB from baseline ([1]; p2, 200 mg bid): 71.2 ± 31.3%
- mean episode duration (SD) ([1]; p2, 200 mg bid, baseline 4.8+5.2): 1.7+2.5 h
- mean episode duration (SD) ([1]; p3, 400 mg bid): 0.6+0.7 h
- relative reduction (RR) in AFB from baseline ([1]; p3, 400 mg bid): 71.7 ± 20.6%
- mean episode duration (SD) ([1]; p4, 600 mg bid): 0.1+0.2 h
- relative reduction (RR) in AFB from baseline ([1]; p4, 600 mg bid): 79.9 ± 26.4%
- mean episode duration (SD) ([1]; p5, 800 mg bid): 0.5+0.7 h
- relative reduction (RR) in AFB from baseline ([1]; p5, 800 mg bid): 86.8 ± 9.8%
- mean episode duration (SD) ([1]; washout): 2.4+3.0 h
- mean AFB (SD) ([1]; washout (p6), no drug): 11.7+14.0%
- CYP2C9 inhibition [2]: inhibitor; also recorded: inhibit CYP2C9
- left and right atrial refractoriness [3]: increased left and right atrial refractoriness comparable with amiodarone
- PR interval reduction from baseline ([4]; 200 mg bid): 16.6+23.9%
- PR interval reduction from baseline ([4]; 400 mg bid): 11.4+22.6%
- change in QTc from baseline, one patient ([4]; 400 mg bid, patient with AV node ablation, permanently paced): 30 to 60 ms
- change in paced QTc from baseline, one patient ([4]; 400 mg bid, same patient): 15%
- PR interval reduction from baseline ([4]; 600 mg bid): 27.0+32.1%
- PR interval reduction from baseline ([4]; 800 mg bid): 35.1 ± 30.9%
- tolerability ([4]; 200-800 mg bid): generally well tolerated
- change from baseline QT or QTc with dosing ([4]; all patients, paced or not): No patient exhibited >30% change
- changes in HR, QRS, QT, or QTc ([4]; between baseline and dosing or washout): no significant changes
- proarrhythmia, clinical hypothyroidism, hyperthyroidism ([4]; in vivo): no cases of proarrhythmia, clinical hypothyroidism, or hyperthyroidism
- serious AEs ([4]; in vivo): no serious AEs related to study drug
- thyroid-stimulating hormone level reached after increase, individual patients ([4]; three patients, from 2.53, 3.51 and 0.68, normal range 0.27-4.2): 4.82 mU/L and 9.49 mU/L and 16.12 mU/L
- PR interval reduction from baseline ([4]; washout): 30.7 ± 24.3%
